Assays:
[1] = tested on: healthy subjects; details: cited from earlier work
[2] = tested on: adrenergic α1 receptors; details: cited from earlier work
[3] = tested on: patients with anxiety disorder without somatic illness; test: Same phase II study: adverse events; type: in vivo, human
Source text: Subjects were asked to report any adverse events (AEs) during the sessions or between study sessions at the beginning of the next session/visit and at the end of study (EOS) visit. The investigator rated hallucinogen-specific AEs that occurred during the session using a checklist adapted from (Gasser et al., 2014; Griffiths et al., 2006; Schmid et al., 2015). Peak effects were rated at the end of the session based on the patients description and investigators' observation by the investigator as “not reported”, “mild”, “moderate”, or “severe” for: headache, dizziness, dry mouth, nausea, anxiety, paranoid thinking, emotional distress, emotional lability, blurred vision, chills/feeling cold, impaired balance. Heart rate and blood pressure were measured at 2-hourly intervals (Grob et al., 2011).
AEs were described and recorded on the subject's CRF, regardless of the severity or relationship to the IMP. AEs were rated for severity and the potential relationship to the study interventions was evaluated by the investigator according standard criteria. Subjects with AEs were treated appropriately. Abnormal laboratory values not explained by the patients' disease had to be repeated until normal or until the abnormality caould be explained and the subject's safety was not at risk.

[4] = tested on: patients with anxiety disorder without somatic illness; test: Randomized, double-blind, placebo-controlled phase II cross-over study of LSD: ratings of anxiety, depression and psychological distress; type: in vivo, human
Method: Specifically, in patients with generalized anxiety disorder, LSD or placebo was administered in double-blind manner in two sessions separated by 6 weeks and anxiety, depression and psychological distress were assessed between sessions, 2, 8, and 16 weeks after the second session. Then patients who received LSD crossed over to placebo and vice versa.
The examples study used a double-blind cross-over design with two treatment sequences each lasting 24 weeks (LSD vs. placebo-assisted psychotherapy) and separated by a […] between-sequence period. Order was counter-balanced and random. Each participant served as its own control over the 52-weeks total study duration. Treatment effects are also compared between subjects for the first 24 week study period before the cross-over.
Each of the four LSD/Placebo sessions lasted 12 hours from 8 AM to 8 PM. Sessions took place in a quiet room at the Ambulatory Study Center of the University Hospital Basel (Basel center) or in the private practice office of Dr. P. Gasser (Solothurn center). At the beginning of the session, current mood and mental state were discussed and a urine drug screen was taken and any AEs since the last visit were recorded. Any open questions or concerns were addressed by the investigator. The participants were advised to lie in a bed or sit comfortably on a chair. Other than going to the bathroom, the participants remained in the treatment room for the entire 12-hour experimental session and were supervised constantly up to 8-12 hours after LSD/placebo administration depending on the participant's response and as needed. The subjective effects of LSD at the dose used in this study were expected to last 8-12 hours (Gasser et al., 2014; Holze et al., 2021; Schmid et al., 2015). […] During the LSD/placebo effect, the participants were instructed to focus their awareness inward. Subjects were encouraged to wear eye shades during the first hours (or the light was dimmed) as well as to listen to music and discussions/talking much with the investigator were discouraged. Subjects were allowed to remain mostly undisturbed with brief physical contacts every two hours when heart rate and blood pressure were measured. At the end of the sessions, 10-12 hours after LSD/placebo administration, the acute subjective peak effects were retrospectively rated by the participants using the 5D-ASC, SCQ, AMRS, and VASs and the experience was discussed. Ten-twelve hours after LSD/placebo administration the participants were allowed to return to their home with company and supervision provided by the partner, a relative, or a friend. If supervision was not available or if effects persisted, the night was spent at the study site.
The STAI is a widely used self-report instrument for assessing anxiety in adults. It includes separate measures of state and trait anxiety (Spielberger et al., 1983). The STAI evaluates the essential qualities of feelings of apprehension, tension, nervousness, and worry. The STAI differentiates between the temporary condition of state anxiety and the more general and long-standing quality of trait anxiety. The STAI state anxiety subscale asks for feelings at the moment of filling out the questionnaire, and the STAI trait anxiety subscale ask subjects to indicate how they generally view themselves. For both subscales, scores from 20 to 39 represent mild anxiety, and scores from 40 to 59 indicated moderate anxiety, whereas scores from 60 to 80 indicated severe anxiety. Both the state and trait STAI are commonly used as outcome measures in studies in patients with anxiety disorder (Fisher et al., 1999; Laakmann et al., 1998). A global STAI score can be derived by adding up the state and trait anxiety scale scores (range: 40-160 points). Similar to the pilot study both STAI scale scores were used to determine study inclusion at the screening visit (Gasser et al., 2014; Gasser et al., 2015). […]

[5] = tested on: healthy volunteers; details: cited from earlier work
[6] = tested on: amygdala reactivity; details: fMRI; cited from earlier work
[7] = follow-up visits, not including treatment sessions
[8] = between-subjects, after the first session, p=0.04
[9] = between-subjects, week 10 (2 weeks after the second dose), p=0.002
[10] = between-subjects, weeks 16 and 24, did not reach statistical significance
[11] = within-subjects, 2 weeks after the second administration, p=0.003

## CCN(CC)C(=O)[C@@H]1C=C2c3cccc4[nH]cc(c34)C[C@H]2N(C)C1 [LSD, lysergic acid diethylamide]
[1]; 200 μg oral, 16 healthy subjects
  duration of alterations in waking consciousness: 12 h
[1]; 200 μg oral
  blood pressure, heart rate, body temperature, pupil size, plasma cortisol, prolactin, oxytocin, and epinephrine: significantly increased
  time until adverse effects completely subsided: ≤ 72 h
[1]; 200 μg, acute AE
  difficulty concentrating, number of subjects of 16 participants: 10
  dizziness, number of subjects of 16 participants: 7
  headache, number of subjects of 16 participants: 9
  nausea, number of subjects of 16 participants: 4
  transient moderate anxiety, number of subjects of 16 participants: 4
[1]; 200 μg
  duration of LSD effects after administration: up to 12 hours
  time of peak LSD effects: 2 h
[2]
  activity at adrenergic α1 receptors: stimulates
[3]; 100 μg instead of 200 μg, patient with paranoia SAE
  tolerability after dose lowered: tolerated well
[3]; all follow-up visits of the period, not including treatment sessions
  fatigue, total of reported AEs: 9
[3]; during the treatment session
  anxiety at onset of the LSD effect: two
  headache: one
  nausea: two
  strong anxiety/paranoia: one
[3]; first LSD session, 200 μg
  SAE: paranoia during the LSD session (expected reaction to LSD): one
[3]; [7]
  common cold, total of reported AEs: 7
  depression, total of reported AEs: 3
  difficulty concentrating, total of reported AEs: 5
  headache, total of reported AEs: 6
  nausea, total of reported AEs: 3
  vertigo, total of reported AEs: 5
[4]; LSD condition only, 19 patients, 2 weeks after the second treatment session, p=0.006, 0.01, 0.03, 0.02, 0.03
  STAI-S, STAI-T, STAI-G, HDRS, BDI and SCL-90 Global scores compared with baseline: reduced scores on all outcome measures significantly
[4]; between-subjects, first period, week 10 (2 weeks after the second dose), 200 μg per os, p=0.008
  STAI-S ratings compared with placebo: significantly reduced
[4]; between-subjects, after the first session, p=0.03
  STAI-S ratings compared with placebo: significantly reduced
[4]; [8]
  HDRS scores compared with placebo: already reduced scores
  STAI-G ratings compared with placebo: significantly reduced
[4]; between-subjects, week 10 (2 weeks after the second dose), p=0.001
  STAI-T ratings compared with placebo: significantly reduced
[4]; [9]
  HDRS scores compared with placebo: significantly reduced
  STAI-G ratings compared with placebo: significantly reduced
[4]; between-subjects, week 10, p=0.004
  SCL-90 Global scores compared with placebo: significantly reduced
[4]; between-subjects, week 10, p=0.02
  BDI scores compared with placebo: significantly reduced
[4]; between-subjects, week 16 and week 24, did not reach statistical significance
  SCL-90 Global compared with placebo: remained reduced
[4]; between-subjects, weeks 16 and 24 (8 and 16 weeks after the second dose), did not reach statistical significance
  STAI-S ratings compared with placebo: continued to be reduced
[4]; [10]
  STAI-G ratings compared with placebo: continued to be reduced
  STAI-T ratings compared with placebo: continued to be reduced
[4]; within-subjects (19 patients), 2 weeks after the second administration, p=0.01
  STAI-S symptom score, difference from baseline, compared with placebo: significantly reduced
[4]; within-subjects, 2 weeks after the second administration, p=0.002
  BDI symptom score, difference from baseline, compared with placebo: significantly reduced
[4]; [11]
  STAI-G symptom score, difference from baseline, compared with placebo: significantly reduced
  STAI-T symptom score, difference from baseline, compared with placebo: significantly reduced
[4]; within-subjects, 2 weeks after the second administration, p=0.004
  SCL-90 Global symptom score, difference from baseline, compared with placebo: significantly reduced
[4]; within-subjects, 2 weeks after the second administration, p=0.03
  HDRS symptom score, difference from baseline, compared with placebo: significantly reduced
[5]; 75 μg intravenously, at two weeks
  optimism and trait openness compared with placebo: increased
[5]; 40-80 μg intravenously, 10 healthy volunteers
  blood pressure and heart rate: slightly elevated
[6]
  amygdala reactivity to fearful stimuli: decreased
